Test results as given in US20260262643A1, “HERBICIDAL BENZOXAZINES” (FMC CORPORATION, priority 2022, published 2026).

Experiments:
pigweed, palmer [1] = test: Test C preemergence; format: in vivo, Amaranthus palmeri; conditions: for Pigweed, Palmer plant response rating: 500 g ai/ha, preemergence, 0 to 100 scale (0 no effect, 100 complete control); for Plant response rating, Pigweed, Palmer: Preemergence, 125 g ai/ha, 0 to 100 scale, 0 no effect, 100 complete control
Summary of the method: (§1)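 Test material, in non-phytotoxic solvent with surfactant, was sprayed on the soil directly after seeding (preemergence) or on young plants of 2–10 cm with one to two leaves (postemergence). Greenhouse, 10 days; 0–100 visual control scale.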

wheat [2] = test: Test C preemergence; format: in vivo, Triticum aestivum; conditions: for Wheat plant response rating: 500 g ai/ha, preemergence, 0 to 100 scale (0 no effect, 100 complete control); for Plant response rating, Wheat: Preemergence, 125 g ai/ha, 0 to 100 scale, 0 no effect, 100 complete control
Summary of the method: as §1

horseweed = test: Test C postemergence; format: in vivo, Erigeron canadensis; conditions: 10 days, 0 to 100 scale (0 no effect, 100 complete control)
Summary of the method: as §1

wheat [3] = test: Test C postemergence; format: in vivo, Triticum aestivum; conditions: Postemergence, 125 g ai/ha; 0 to 100 scale (0 no effect, 100 complete control), 10 days
Summary of the method: as §1

green foxtail [4] = test: Test C preemergence; format: in vivo, Setaria viridis; conditions: for Foxtail, Green plant response rating: 500 g ai/ha, preemergence, 0 to 100 scale (0 no effect, 100 complete control); for Plant response rating, Foxtail, Green: Preemergence, 125 g ai/ha, 0 to 100 scale, 0 no effect, 100 complete control
Summary of the method: as §1

rice = test: Test D flooded paddy test; format: in vivo, Oryza sativa; conditions: 250 g ai/ha, applied to paddy water, visual rating after 13 to 14 days, scale 0 to 100 (0 no effect, 100 complete control)
Summary of the method: (§2)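 At the 2-leaf stage, floodwater 3 cm deep received the test compound; that depth persisted throughout. Plants scored visually 13 to 14 days on, 0 (no effect) to 100 (complete control), dash indicating no result.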

barnyardgrass [5] = test: Test C preemergence; format: in vivo, Echinochloa crusgalli; conditions: for Barnyardgrass plant response rating: 500 g ai/ha, preemergence, 0 to 100 scale (0 no effect, 100 complete control); for Plant response rating, Barnyardgrass: Preemergence, 125 g ai/ha, 0 to 100 scale, 0 no effect, 100 complete control
Summary of the method: as §1

soybean [6] = test: Test C postemergence; format: in vivo, Glycine max; conditions: Postemergence, 125 g ai/ha; 0 to 100 scale (0 no effect, 100 complete control), 10 days
Summary of the method: as §1

oat, wild [7] = test: Test C preemergence; format: in vivo, Avena fatua; conditions: for Oat, Wild plant response rating: 500 g ai/ha, preemergence, 0 to 100 scale (0 no effect, 100 complete control); for Plant response rating, Oat, Wild: Preemergence, 125 g ai/ha, 0 to 100 scale, 0 no effect, 100 complete control
Summary of the method: as §1

ducksalad = test: Test D flooded paddy test; format: in vivo, Heteranthera limosa; conditions: 250 g ai/ha, applied to paddy water, visual rating after 13 to 14 days, scale 0 to 100 (0 no effect, 100 complete control)
Summary of the method: as §2

kochia [8] = test: Test C preemergence; format: in vivo, Bassia scoparia; conditions: for Kochia plant response rating: 500 g ai/ha, preemergence, 0 to 100 scale (0 no effect, 100 complete control); for Plant response rating, Kochia: Preemergence, 125 g ai/ha, 0 to 100 scale, 0 no effect, 100 complete control
Summary of the method: as §1

barnyardgrass [9] = test: Test C postemergence; format: in vivo, Echinochloa crusgalli; conditions: 10 days, 0 to 100 scale (0 no effect, 100 complete control)
Summary of the method: as §1

green foxtail [10] = test: Test C postemergence; format: in vivo, Setaria viridis; conditions: 10 days, 0 to 100 scale (0 no effect, 100 complete control)
Summary of the method: as §1

ryegrass, Italian [11] = test: Test C postemergence; format: in vivo, Lolium multiflorum; conditions: Postemergence, 125 g ai/ha; 0 to 100 scale (0 no effect, 100 complete control), 10 days
Summary of the method: as §1

oat, wild [12] = test: Test C postemergence; format: in vivo, Avena fatua; conditions: 10 days, 0 to 100 scale (0 no effect, 100 complete control)
Summary of the method: as §1

soybean [13] = test: Test C preemergence; format: in vivo, Glycine max; conditions: for Soybean plant response rating: 500 g ai/ha, preemergence, 0 to 100 scale (0 no effect, 100 complete control); for Plant response rating, Soybean: Preemergence, 125 g ai/ha, 0 to 100 scale, 0 no effect, 100 complete control
Summary of the method: as §1

ragweed [14] = test: Test C postemergence; format: in vivo, Ambrosia artemisiifolia; conditions: Postemergence, 125 g ai/ha; 0 to 100 scale (0 no effect, 100 complete control), 10 days
Summary of the method: as §1

sedge, umbrella = test: Test D flooded paddy test; format: in vivo, Cyperus difformis; conditions: 250 g ai/ha, applied to paddy water, visual rating after 13 to 14 days, scale 0 to 100 (0 no effect, 100 complete control)
Summary of the method: as §2

barnyardgrass [15] = test: Test D flooded paddy test; format: in vivo, Echinochloa crus-galli; conditions: 250 g ai/ha, applied to paddy water, visual rating after 13 to 14 days, scale 0 to 100 (0 no effect, 100 complete control)
Summary of the method: as §2

pigweed, palmer [16] = test: Test C postemergence; format: in vivo, Amaranthus palmeri; conditions: 10 days, 0 to 100 scale (0 no effect, 100 complete control)
Summary of the method: as §1

corn [17] = test: Test C postemergence; format: in vivo, Zea mays; conditions: 10 days, 0 to 100 scale (0 no effect, 100 complete control)
Summary of the method: as §1

corn [18] = test: Test C preemergence; format: in vivo, Zea mays; conditions: for Corn plant response rating: 500 g ai/ha, preemergence, 0 to 100 scale (0 no effect, 100 complete control); for Plant response rating, Corn: Preemergence, 125 g ai/ha, 0 to 100 scale, 0 no effect, 100 complete control
Summary of the method: as §1

blackgrass [19] = test: Test C preemergence; format: in vivo, Alopecurus myosuroides; conditions: for Blackgrass plant response rating: 500 g ai/ha, preemergence, 0 to 100 scale (0 no effect, 100 complete control); for Plant response rating, Blackgrass: Preemergence, 125 g ai/ha, 0 to 100 scale, 0 no effect, 100 complete control
Summary of the method: as §1

kochia [20] = test: Test C postemergence; format: in vivo, Bassia scoparia; conditions: 10 days, 0 to 100 scale (0 no effect, 100 complete control)
Summary of the method: as §1

blackgrass [21] = test: Test C postemergence; format: in vivo, Alopecurus myosuroides; conditions: 10 days, 0 to 100 scale (0 no effect, 100 complete control)
Summary of the method: as §1

ragweed [22] = test: Test C preemergence; format: in vivo, Ambrosia artemisiifolia; conditions: for Ragweed plant response rating: 500 g ai/ha, preemergence, 0 to 100 scale (0 no effect, 100 complete control); for Plant response rating, Ragweed: Preemergence, 125 g ai/ha, 0 to 100 scale, 0 no effect, 100 complete control
Summary of the method: as §1

ryegrass, Italian [23] = test: Test C preemergence; format: in vivo, Lolium multiflorum; conditions: for Ryegrass, Italian plant response rating: 500 g ai/ha, preemergence, 0 to 100 scale (0 no effect, 100 complete control); for Plant response rating, Ryegrass, Italian: Preemergence, 125 g ai/ha, 0 to 100 scale, 0 no effect, 100 complete control
Summary of the method: as §1

SMILES: Cc1ccc(-n2cnc(C(C)(C)C#N)n2)cc1C(=O)N1C[C@H](C)Oc2c(Cl)cccc21 [Compound 397]
- Pigweed, Palmer plant response rating (pigweed, palmer [1]): 100
- Plant response rating, Pigweed, Palmer (pigweed, palmer [1]): 100
- Wheat plant response rating (wheat [2]): 30
- Plant response rating, Wheat (wheat [2]): 10
- Plant response rating, Horseweed (horseweed; 500 g ai/ha, postemergence): 80
- Plant response rating, Horseweed (horseweed; Postemergence, 125 g ai/ha): 40
- Plant response rating, Wheat (wheat [3]): 20
- Foxtail, Green plant response rating (green foxtail [4]): 100
- Plant response rating, Foxtail, Green (green foxtail [4]): 100
- Plant response rating, Rice (Flood) (rice): 15
- Barnyardgrass plant response rating (barnyardgrass [5]): 100
- Plant response rating, Barnyardgrass (barnyardgrass [5]): 90
- Plant response rating, Soybean (soybean [6]): 50
- Oat, Wild plant response rating (oat, wild [7]): 90
- Plant response rating, Oat, Wild (oat, wild [7]): 60
- Plant response rating, Ducksalad (Flood) (ducksalad): 10
- Kochia plant response rating (kochia [8]): 100
- Plant response rating, Kochia (kochia [8]): 90
- Plant response rating, Barnyardgrass (barnyardgrass [9]; 500 g ai/ha, postemergence): 60
- Plant response rating, Barnyardgrass (barnyardgrass [9]; Postemergence, 125 g ai/ha): 40
- Plant response rating, Foxtail, Green (green foxtail [10]; 500 g ai/ha, postemergence): 90
- Plant response rating, Foxtail, Green (green foxtail [10]; Postemergence, 125 g ai/ha): 90
- Plant response rating, Ryegrass, Italian (ryegrass, Italian [11]): 50
- Plant response rating, Oat, Wild (oat, wild [12]; 500 g ai/ha, postemergence): 70
- Plant response rating, Oat, Wild (oat, wild [12]; Postemergence, 125 g ai/ha): 20
- Soybean plant response rating (soybean [13]): 100
- Plant response rating, Soybean (soybean [13]): 70
- Plant response rating, Ragweed (ragweed [14]): 100
- Plant response rating, Sedge, Umbrella (Flood) (sedge, umbrella): 45
- Plant response rating, Barnyardgrass (Flood) (barnyardgrass [15]): 50
- Plant response rating, Pigweed, Palmer (pigweed, palmer [16]; 500 g ai/ha, postemergence): 100
- Plant response rating, Pigweed, Palmer (pigweed, palmer [16]; Postemergence, 125 g ai/ha): 100
- Plant response rating, Corn (corn [17]; 500 g ai/ha, postemergence): 70
- Plant response rating, Corn (corn [17]; Postemergence, 125 g ai/ha): 70
- Corn plant response rating (corn [18]): 20
- Plant response rating, Corn (corn [18]): 10
- Blackgrass plant response rating (blackgrass [19]): 90
- Plant response rating, Blackgrass (blackgrass [19]): 70
- Plant response rating, Kochia (kochia [20]; 500 g ai/ha, postemergence): 100
- Plant response rating, Kochia (kochia [20]; Postemergence, 125 g ai/ha): 90
- Plant response rating, Blackgrass (blackgrass [21]; 500 g ai/ha, postemergence): 90
- Plant response rating, Blackgrass (blackgrass [21]; Postemergence, 125 g ai/ha): 80
- Ragweed plant response rating (ragweed [22]): 80
- Plant response rating, Ragweed (ragweed [22]): 50
- Ryegrass, Italian plant response rating (ryegrass, Italian [23]): 90
- Plant response rating, Ryegrass, Italian (ryegrass, Italian [23]): 80

SMILES: CCOC[C@H]1CN(C(=O)c2cc(-n3cnc(C4CCC4)n3)cc3c2OCO3)c2cccc(Cl)c2O1 [Compound 399]
- Pigweed, Palmer plant response rating (pigweed, palmer [1]): 100
- Plant response rating, Pigweed, Palmer (pigweed, palmer [1]): 100
- Wheat plant response rating (wheat [2]): 10
- Plant response rating, Wheat (wheat [2]): 0
- Plant response rating, Horseweed (horseweed; 500 g ai/ha, postemergence): 70
- Plant response rating, Horseweed (horseweed; Postemergence, 125 g ai/ha): 50
- Plant response rating, Wheat (wheat [3]): 20
- Foxtail, Green plant response rating (green foxtail [4]): 100
- Plant response rating, Foxtail, Green (green foxtail [4]): 20
- Plant response rating, Rice (Flood) (rice): 0
- Barnyardgrass plant response rating (barnyardgrass [5]): 70
- Plant response rating, Barnyardgrass (barnyardgrass [5]): 10
- Plant response rating, Soybean (soybean [6]): 0
- Oat, Wild plant response rating (oat, wild [7]): 30
- Plant response rating, Oat, Wild (oat, wild [7]): 0
- Plant response rating, Ducksalad (Flood) (ducksalad): 0
- Kochia plant response rating (kochia [8]): 70
- Plant response rating, Kochia (kochia [8]): 0
- Plant response rating, Barnyardgrass (barnyardgrass [9]; 500 g ai/ha, postemergence): 30
- Plant response rating, Barnyardgrass (barnyardgrass [9]; Postemergence, 125 g ai/ha): 20
- Plant response rating, Foxtail, Green (green foxtail [10]; 500 g ai/ha, postemergence): 40
- Plant response rating, Foxtail, Green (green foxtail [10]; Postemergence, 125 g ai/ha): 10
- Plant response rating, Ryegrass, Italian (ryegrass, Italian [11]): 0
- Plant response rating, Oat, Wild (oat, wild [12]; 500 g ai/ha, postemergence): 0
- Plant response rating, Oat, Wild (oat, wild [12]; Postemergence, 125 g ai/ha): 0
- Soybean plant response rating (soybean [13]): 20
- Plant response rating, Soybean (soybean [13]): 0
- Plant response rating, Ragweed (ragweed [14]): 70
- Plant response rating, Sedge, Umbrella (Flood) (sedge, umbrella): 0
- Plant response rating, Barnyardgrass (Flood) (barnyardgrass [15]): 0
- Plant response rating, Pigweed, Palmer (pigweed, palmer [16]; 500 g ai/ha, postemergence): 100
- Plant response rating, Pigweed, Palmer (pigweed, palmer [16]; Postemergence, 125 g ai/ha): 100
- Plant response rating, Corn (corn [17]; 500 g ai/ha, postemergence): 10
- Plant response rating, Corn (corn [17]; Postemergence, 125 g ai/ha): 0
- Corn plant response rating (corn [18]): 0
- Plant response rating, Corn (corn [18]): 0
- Blackgrass plant response rating (blackgrass [19]): 0
- Plant response rating, Blackgrass (blackgrass [19]): 0
- Plant response rating, Kochia (kochia [20]; 500 g ai/ha, postemergence): 90
- Plant response rating, Kochia (kochia [20]; Postemergence, 125 g ai/ha): 90
- Plant response rating, Blackgrass (blackgrass [21]; 500 g ai/ha, postemergence): 20
- Plant response rating, Blackgrass (blackgrass [21]; Postemergence, 125 g ai/ha): 0
- Ragweed plant response rating (ragweed [22]): 80
- Plant response rating, Ragweed (ragweed [22]): 30
- Ryegrass, Italian plant response rating (ryegrass, Italian [23]): 70
- Plant response rating, Ryegrass, Italian (ryegrass, Italian [23]): 50
